Source: patent publication US20230129258A1, “HETEROTANDEM BICYCLIC PEPTIDE COMPLEXES” (BicycleTx Limited, priority 2019, published 2023)
Starred links: 1 amine or outer side, 2 acyl side, 3 side chain; linkers in the order of their positions; H or OH if unused. Positions of bridges follow the written chain, without caps; N, C: chain ends. Non-standard residues stand in square brackets, D forms with d. Chains are numbered I, II in the order given. X1 = O=C(CCOCCOCCOCCN(CCOCCOCCOCCn1cc(CCC(=O)[*:2])nn1)CCOCCOCCOCCn1cc(CCC(=O)[*:3])nn1)[*:1]; TATA = O=C(CC[*:1])N1CN(C(=O)CC[*:2])CN(C(=O)CC[*:3])C1; Hyp = O=C(O)[C@@H]1C[C@@H](O)CN1; hArg = N=C(N)NCCCC[C@H](N)C(=O)O; tBuAla = CC(C)(C)C[C@H](N)C(=O)O; Nle = CCCC[C@H](N)C(=O)O

How the values were obtained:
[1] = target: CD137 (Homo sapiens, UniProt Q07011); assay: CD137 reporter assay (Promega CD137 luciferase reporter, Jurkat cells) in co-culture with Nectin-4-expressing tumor cells; assay type: cell-based; parameters: host or cells: Jurkat reporter cells; details: co-culture with HT1376, Table 2A
[2] = Pharmacokinetics in SD rats; assay type: in vivo; details: rat, in vivo, IV Inf (15 minutes)
Protocol: Male SD Rats were dosed with each heterotandem Bicycle peptide complex formulated in 25 mM Histidine HCl, 10% sucrose pH 7 by IV bolus or IV infusion (15 minutes). Serial bleeding (about 80 μL blood/time point) was performed via submandibular or saphenous vein at each time point. All blood samples were immediately transferred into prechilled microcentrifuge tubes containing 2 μL K2-EDTA (0.5M) as anti-coagulant and placed on wet ice. Blood samples were immediately processed for plasma by centrifugation at approximately 4° C., 3000 g. The precipitant including internal standard was immediately added into the plasma, mixed well and centrifuged at 12,000 rpm, 4° C. for 10 minutes. The supernatant was transferred into pre-labeled polypropylene microcentrifuge tubes, and then quick-frozen over dry ice. The samples were stored at […] or below as needed until analysis. 7.5 μL of the supernatant samples were directly injected for LC-MS/MS analysis using an Orbitrap Q Exactive in positive ion mode to determine the concentrations of analyte. Plasma concentration versus time data were analyzed by non-compartmental approaches using the Phoenix WinNonlin 6.3 software program. C0, CI, Vdss, T½, AUC(0-last), AUC(0-inf), MRT(0-last), MRT(0-inf) and graphs of plasma concentration versus time profile were reported.

Sequence of CD137 (Q07011 24-255): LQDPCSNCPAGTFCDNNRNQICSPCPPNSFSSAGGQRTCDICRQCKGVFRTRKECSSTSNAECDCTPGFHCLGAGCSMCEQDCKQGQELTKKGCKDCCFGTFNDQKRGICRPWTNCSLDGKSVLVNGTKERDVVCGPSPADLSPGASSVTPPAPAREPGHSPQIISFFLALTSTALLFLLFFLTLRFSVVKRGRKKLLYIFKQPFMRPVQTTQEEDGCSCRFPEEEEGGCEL

Compound: CCCC[C@@H]1NC(=O)[C@H](Cc2ccc(O)cc2)NC(=O)[C@@H]2CCCN2C(=O)[C@H](CC(=O)O)NC(=O)[C@H](C)NC(=O)[C@H](Cc2ccccc2)NC(=O)[C@@H]2CSCCC(=O)N3CN(CN(C3)C(=O)CCSC[C@@H](C(=O)N[C@@H](C)C(N)=O)NC1=O)C(=O)CCSC[C@H](NC(C)=O)C(=O)N[C@@H](CC(C)(C)C)C(=O)N1CCC[C@H]1C(=O)N[C@@H](CCC(=O)O)C(=O)N[C@H](CCCCNC(=O)CCc1cn(CCOCCOCCOCCN(CCOCCOCCOCCC(=O)NCCCC[C@H]3NC(=O)[C@H](Cc4cccc5ccccc45)NC(=O)[C@@H]4CCCN4C(=O)[C@@H](NC(C)=O)CSCCC(=O)N4CN5CN(C4)C(=O)CCSC[C@H](NC3=O)C(=O)N[C@@H](CCSC)C(=O)N[C@@H](CCCCNC(=N)N)C(=O)N[C@@H](CC(=O)O)C(=O)N[C@@H](Cc3c[nH]c4ccccc34)C(=O)N[C@@H](CO)C(=O)N[C@@H]([C@@H](C)O)C(=O)N3CCC[C@H]3C(=O)N3C[C@H](O)C[C@H]3C(=O)N[C@@H](Cc3c[nH]c4ccccc34)C(=O)N[C@H](C(N)=O)CSCCC5=O)CCOCCOCCOCCn3cc(CCC(=O)NCCCC[C@H]4NC(=O)[C@H](CCC(=O)O)NC(=O)[C@@H]5CCCN5C(=O)[C@H](CC(C)(C)C)NC(=O)[C@@H](NC(C)=O)CSCCC(=O)N5CN6CN(C5)C(=O)CCSC[C@H](NC(=O)[C@H](Cc5ccc(O)cc5)NC(=O)[C@@H]5CCCN5C4=O)C(=O)N[C@@H](Cc4ccccc4)C(=O)N[C@@H](C)C(=O)N[C@@H](CC(=O)O)C(=O)N4CCC[C@H]4C(=O)N[C@@H](Cc4ccc(O)cc4)C(=O)N[C@@H](CCCC)C(=O)N[C@H](C(=O)N[C@@H](C)C(N)=O)CSCCC6=O)nn3)nn1)C(=O)N1CCC[C@H]1C(=O)N[C@@H](Cc1ccc(O)cc1)C(=O)N2 [BCY12490]
- EC50 ([1]; EC50 (nM)): 0.23 nM

Compound: CCCC[C@@H]1NC(=O)[C@H](Cc2ccc(O)cc2)NC(=O)[C@@H]2CCCN2C(=O)[C@H](CC(=O)O)NC(=O)[C@H](C)NC(=O)[C@H](Cc2ccccc2)NC(=O)[C@@H]2CSCCC(=O)N3CN(CN(C3)C(=O)CCSC[C@@H](C(=O)N[C@@H](C)C(N)=O)NC1=O)C(=O)CCSC[C@H](NC(C)=O)C(=O)N[C@@H](CC(C)(C)C)C(=O)N1CCC[C@H]1C(=O)N[C@@H](CCC(=O)O)C(=O)N[C@H](CCCCNC(=O)CCc1cn(CCOCCOCCOCCN(CCOCCOCCOCCC(=O)N[C@H]3CSCCC(=O)N4CN5CN(C4)C(=O)CCSC[C@H](NC(=O)[C@@H](CC(=O)O)NC(=O)[C@H](Cc4cccc6ccccc46)NC(=O)[C@@H]4CCCN4C3=O)C(=O)N[C@@H](CCSC)C(=O)N[C@@H](CCCCNC(=N)N)C(=O)N[C@@H](CC(=O)O)C(=O)N[C@@H](Cc3c[nH]c4ccccc34)C(=O)N[C@@H](CO)C(=O)N[C@@H]([C@@H](C)O)C(=O)N3CCC[C@H]3C(=O)N3C[C@H](O)C[C@H]3C(=O)N[C@@H](Cc3c[nH]c4ccccc34)C(=O)N[C@H](C(N)=O)CSCCC5=O)CCOCCOCCOCCn3cc(CCC(=O)NCCCC[C@H]4NC(=O)[C@H](CCC(=O)O)NC(=O)[C@@H]5CCCN5C(=O)[C@H](CC(C)(C)C)NC(=O)[C@@H](NC(C)=O)CSCCC(=O)N5CN6CN(C5)C(=O)CCSC[C@H](NC(=O)[C@H](Cc5ccc(O)cc5)NC(=O)[C@@H]5CCCN5C4=O)C(=O)N[C@@H](Cc4ccccc4)C(=O)N[C@@H](C)C(=O)N[C@@H](CC(=O)O)C(=O)N4CCC[C@H]4C(=O)N[C@@H](Cc4ccc(O)cc4)C(=O)N[C@@H](CCCC)C(=O)N[C@H](C(=O)N[C@@H](CCCCNC(=O)c4ccc(-c5c7ccc(=N)c(S(=O)(=O)O)c-7oc7c(S(=O)(=O)O)c(N)ccc57)c(C(=O)O)c4)C(N)=O)CSCCC6=O)nn3)nn1)C(=O)N1CCC[C@H]1C(=O)N[C@@H](Cc1ccc(O)cc1)C(=O)N2 [BCY13583]
- Emax [1]: 63 fold induction over background

Compound: CCCC[C@@H]1NC(=O)[C@H](Cc2ccc(O)cc2)NC(=O)[C@@H]2CCCN2C(=O)[C@H](CCC(=O)O)NC(=O)[C@H](C)NC(=O)[C@H](Cc2ccccc2)NC(=O)[C@@H]2CSCCC(=O)N3CN(CN(C3)C(=O)CCSC[C@H](NC(C)=O)C(=O)N[C@@H](CC(C)(C)C)C(=O)N3CCC[C@H]3C(=O)N[C@@H](CCC(=O)O)C(=O)N[C@H](CCCCNC(=O)CCc3cn(CCOCCOCCOCCN(CCOCCOCCOCCC(=O)N[C@H]4CSCCC(=O)N5CN6CN(C5)C(=O)CCSC[C@H](NC(=O)[C@@H](CC(=O)O)NC(=O)[C@H](Cc5cccc7ccccc57)NC(=O)[C@@H]5CCCN5C4=O)C(=O)N[C@@H](CCSC)C(=O)N[C@@H](CCCCNC(=N)N)C(=O)N[C@@H](CC(=O)O)C(=O)N[C@@H](Cc4c[nH]c5ccccc45)C(=O)N[C@@H](CO)C(=O)N[C@@H]([C@@H](C)O)C(=O)N4CCC[C@H]4C(=O)N4C[C@H](O)C[C@H]4C(=O)N[C@@H](Cc4c[nH]c5ccccc45)C(=O)N[C@H](C(N)=O)CSCCC6=O)CCOCCOCCOCCn4cc(CCC(=O)NCCCC[C@H]5NC(=O)[C@H](CCC(=O)O)NC(=O)[C@@H]6CCCN6C(=O)[C@H](CC(C)(C)C)NC(=O)[C@@H](NC(C)=O)CSCCC(=O)N6CN7CN(C6)C(=O)CCSC[C@H](NC(=O)[C@H](Cc6ccc(O)cc6)NC(=O)[C@@H]6CCCN6C5=O)C(=O)N[C@@H](Cc5ccccc5)C(=O)N[C@@H](C)C(=O)N[C@@H](CCC(=O)O)C(=O)N5CCC[C@H]5C(=O)N[C@@H](Cc5ccc(O)cc5)C(=O)N[C@@H](CCCC)C(=O)N[C@H](C(N)=O)CSCCC7=O)nn4)nn3)C(=O)N3CCC[C@H]3C(=O)N[C@@H](Cc3ccc(O)cc3)C(=O)N2)C(=O)CCSC[C@@H](C(N)=O)NC1=O [BCY12487]
- Emax [1]: 12 fold induction over background

Compound: I: A[hArg]DC[Hyp]LVNPLCLHP[dD]W[hArg]C-NH2 / II: Ac-C[tBuAla]PE[dK]PYCFADPY[Nle]C-NH2 / III: Ac-C[tBuAla]PE[dK]PYCFADPY[Nle]C-NH2 (linker I:4-I:11-I:18, II:1-II:8-II:15, III:1-III:8-III:15 via TATA; linker I:N-II:5-III:5 via X1) [BCY12724]
- half-life ([2]; iv, read-out: T1/2 (converted)): 1.5 h
- clearance ([2]; read-out: Clp): 13 mL/min/kg
- Vd ([2]; read-out: Vdss): 1.2 L/kg
